Reference: EPA's CvTdb concentration-time database

Tests used:
Rat [1] = assay: concentration in plasma after dosing; conditions: dosed: Wyeth-14643, 5.0 mg/kg, oral, Male, Sprague-Dawley
Rat [2] = assay: concentration in plasma after dosing; conditions: 0.25 h; dosed: Wyeth-14643; 2.0 mg/kg; iv; Male; Sprague-Dawley
Rat [3] = assay: concentration in plasma after dosing; conditions: 2 h; dosed: Wyeth-14643; 2.0 mg/kg; oral; Male; Sprague-Dawley
Rat [4] = assay: concentration in thymus after dosing; conditions: 10 min; dosed: Bis 2-Chloroethoxy Methane; 20 mg/kg; iv; Female; F344
Rat [5] = assay: concentration in plasma after dosing; conditions: 1 h; dosed: Bis 2-Chloroethoxy Methane; 20 mg/kg; iv; Male; F344
Rat [6] = assay: concentration in heart after dosing; conditions: 4 h; dosed: Bis 2-Chloroethoxy Methane; 20 mg/kg; iv; Male; F344
Rat [7] = assay: concentration in plasma after dosing; conditions: 4 h; dosed: Bis 2-Chloroethoxy Methane; 40 mg/kg; iv; Male; Harlan Sprague Dawley
Rat [8] = assay: concentration in thymus after dosing; conditions: 8 h; dosed: Bis 2-Chloroethoxy Methane; 20 mg/kg; iv; Female; Harlan Sprague-Dawley
Rat [9] = assay: concentration in heart after dosing; conditions: 20 min; dosed: Bis 2-Chloroethoxy Methane; 20 mg/kg; iv; Male; F344
Rat [10] = assay: concentration in thymus after dosing; conditions: 7 h; dosed: Bis 2-Chloroethoxy Methane; 20 mg/kg; iv; Female; F344
Rat [11] = assay: concentration in thymus after dosing; conditions: 20 min; dosed: Bis 2-Chloroethoxy Methane; 20 mg/kg; iv; Female; F344
Rat [12] = assay: concentration in thymus after dosing; conditions: 20 min; dosed: Bis 2-Chloroethoxy Methane; 20 mg/kg; iv; Female; F344; remark: listed apart in the source
Rat [13] = assay: concentration in plasma after dosing; conditions: 6 h; dosed: Bis 2-Chloroethoxy Methane; 20 mg/kg; iv; Female; F344
Rat [14] = assay: concentration in plasma after dosing; conditions: dosed: Fluorotelomer alcohol 8+2, 24 mg/kg, oral, Male, Harlan Sprague Dawley
Rat [15] = assay: concentration in brain after dosing; conditions: 6 h; dosed: Fluorotelomer alcohol 8+2; 24 mg/kg; oral; Male; Harlan Sprague Dawley
Rat [16] = assay: concentration in plasma after dosing; conditions: 3 h; dosed: Fluorotelomer alcohol 8+2; 12 mg/kg; iv; Male; F344
Rat [17] = assay: concentration in plasma after dosing; conditions: 0.5 h; dosed: Di-n-butyl phthalate; 100 mg/kg; oral; Male; Sprague-Dawley
Rat [18] = assay: concentration in plasma after dosing; conditions: 1 h; dosed: Di-n-butyl phthalate; 100 mg/kg; oral; Male; Sprague-Dawley
Rat [19] = assay: concentration in plasma after dosing; conditions: 40 min; dosed: Di-n-butyl phthalate; 20 mg/kg; iv; Male; Sprague-Dawley
Rat [20] = assay: concentration in plasma after dosing; conditions: 6 h; dosed: Di-n-butyl phthalate; 20 mg/kg; iv; Male; Sprague-Dawley
Rat [21] = assay: concentration in plasma after dosing; conditions: dosed: Perfluorodecanoic acid, 2 mg/kg, oral, Male, Harlan Sprague Dawley
Rat [22] = assay: concentration in liver after dosing; conditions: 1 h; dosed: Perfluorodecanoic acid; 10 mg/kg; oral; Male; Harlan Sprague Dawley
Rat [23] = assay: concentration in brain after dosing; conditions: 24 h; dosed: Perfluorodecanoic acid; 10 mg/kg; oral; Male; Harlan Sprague Dawley
Rat [24] = assay: concentration in brain after dosing; conditions: 24 h; dosed: Perfluorodecanoic acid; 10 mg/kg; oral; Female; Harlan Sprague Dawley
Rat [25] = assay: concentration in liver after dosing; conditions: 3360 h; dosed: Perfluorodecanoic acid; 10 mg/kg; oral; Female; Harlan Sprague Dawley
Rat [26] = assay: concentration in plasma after dosing; conditions: 6 h; dosed: Primidone; 130 mg/kg; oral; Female; F344
Rat [27] = assay: concentration in plasma after dosing; conditions: 18 h; dosed: Primidone; 30 mg/kg; oral; Male; F344
Rat [28] = assay: concentration in plasma after dosing; conditions: 22 h; dosed: Primidone; 80 mg/kg; oral; Male; F344
Rat [29] = assay: concentration in plasma after dosing; conditions: 3 h; dosed: Thiodiglycolic Acid; 20 mg/kg; iv; Female; Harlan Sprague Dawley
Rat [30] = assay: concentration in heart after dosing; conditions: 4 h; dosed: Thiodiglycolic Acid; 20 mg/kg; iv; Male; Harlan Sprague Dawley
Rat [31] = assay: concentration in heart after dosing; conditions: 8 h; dosed: Thiodiglycolic Acid; 20 mg/kg; iv; Female; Harlan Sprague Dawley
Rat [32] = assay: concentration in thymus after dosing; conditions: 40 min; dosed: Thiodiglycolic Acid; 20 mg/kg; iv; Male; Harlan Sprague Dawley
Rat [33] = assay: concentration in heart after dosing; conditions: 1 h; dosed: Thiodiglycolic Acid; 20 mg/kg; iv; Male; Harlan Sprague Dawley
Rat [34] = assay: concentration in liver after dosing; conditions: 10 min; dosed: Thiodiglycolic Acid; 20 mg/kg; iv; Male; F344
Rat [35] = assay: concentration in heart after dosing; conditions: 40 min; dosed: Thiodiglycolic Acid; 20 mg/kg; iv; Female; Harlan Sprague Dawley
Rat [36] = assay: concentration in heart after dosing; conditions: 1 h; dosed: Thiodiglycolic Acid; 20 mg/kg; iv; Male; Harlan Sprague Dawley; remark: listed apart in the source
Rat [37] = assay: concentration in plasma after dosing; conditions: 40 min; dosed: dichloroacetic acid; 40 mg/kg; oral; Female; Harlan Sprague Dawley
Rat [38] = assay: concentration in plasma after dosing; conditions: dosed: dichloroacetic acid, 60 mg/kg, iv, Female, Harlan Sprague-Dawley

**Q.** How did the concentration in plasma (Rat [1]; 5 min) turn out when `Cc1cccc(Nc2cc(Cl)nc(SCC(=O)O)n2)c1C` was run?
**A.** The concentration in plasma was 572 ng/mL.

**Q.** And the concentration in plasma (Rat [1]; 8 h)?
**A.** The concentration in plasma was 255 ng/mL.

**Q.** What about the concentration in plasma (Rat [2]) of the same molecule?
**A.** Its concentration in plasma is 9460 ng/mL.

**Q.** And the concentration in plasma (Rat [3])?
**A.** Its concentration in plasma is 925 ng/mL.

**Q.** For `ClCCOCOCCCl` [Bis 2-Chloroethoxy Methane], which concentration in thymus (Rat [4]) is on record?
**A.** Its concentration in thymus is 44200 ng/g.

**Q.** What about the concentration in plasma (Rat [5]) of the same molecule?
**A.** Its concentration in plasma is 1940 ng/mL.

**Q.** What about the concentration in heart (Rat [6]) of the same molecule?
**A.** The concentration in heart was 83.9 ng/g.

**Q.** And the concentration in plasma (Rat [7])?
**A.** The concentration in plasma was 162 ng/mL.

**Q.** And the concentration in thymus (Rat [8])?
**A.** Its concentration in thymus is 13.1 ng/g.

**Q.** And the concentration in heart (Rat [9])?
**A.** The concentration in heart was 6660 ng/g.

**Q.** What about the concentration in thymus (Rat [10]) of the same molecule?
**A.** Its concentration in thymus is 17.7 ng/g.

**Q.** What about the concentration in thymus (Rat [11]) of the same molecule?
**A.** The concentration in thymus was 26100 ng/g.

**Q.** And the concentration in thymus (Rat [12])?
**A.** The concentration in thymus was 16300 ng/g.

**Q.** What about the concentration in plasma (Rat [13]) of the same molecule?
**A.** Its concentration in plasma is 17.6 ng/mL.

**Q.** What does the source list for `OCCC(F)(F)C(F)(F)C(F)(F)C(F)(F)C(F)(F)C(F)(F)C(F)(F)C(F)(F)F` [Fluorotelomer alcohol 8+2]?
**A.** concentration in plasma (Rat [14]; 5 min): 8.46 ng/mL; concentration in plasma (Rat [14]; 9 h): 44.8 ng/mL; concentration in brain (Rat [15]): 323 ng/g; concentration in plasma (Rat [16]): 106 ng/mL

**Q.** Which concentration in plasma (Rat [17]) does the source give for `CCCCOC(=O)c1ccccc1C(=O)O` [Mono-n-butyl phthalate] here?
**A.** Its concentration in plasma is 55900 ng/mL.

**Q.** And the concentration in plasma (Rat [18])?
**A.** The concentration in plasma was 27100 ng/mL.

**Q.** What about the concentration in plasma (Rat [19]) of the same molecule?
**A.** Its concentration in plasma is 8270 ng/mL.

**Q.** What about the concentration in plasma (Rat [20]) of the same molecule?
**A.** Its concentration in plasma is 1110 ng/mL.

**Q.** `O=C(O)C(F)(F)C(F)(F)C(F)(F)C(F)(F)C(F)(F)C(F)(F)C(F)(F)C(F)(F)C(F)(F)F` [Perfluorodecanoic acid] was tested. Which concentration in plasma (Rat [21]; 0.5 h) did it give?
**A.** The concentration in plasma was 1690 ng/mL.

**Q.** What about the concentration in plasma (Rat [21]; 24 h) of the same molecule?
**A.** The concentration in plasma was 6460 ng/mL.

**Q.** What about the concentration in plasma (Rat [21]; 1848 h) of the same molecule?
**A.** Its concentration in plasma is 968 ng/mL.

**Q.** What about the concentration in liver (Rat [22]) of the same molecule?
**A.** The concentration in liver was 50300 ng/g.

**Q.** What about the concentration in brain (Rat [23]) of the same molecule?
**A.** Its concentration in brain is 2840 ng/g.

**Q.** And the concentration in brain (Rat [24])?
**A.** Its concentration in brain is 1820 ng/g.

**Q.** And the concentration in liver (Rat [25])?
**A.** The concentration in liver was 6380 ng/g.

**Q.** Which concentration in plasma (Rat [26]) does the source give for `CCC1(c2ccccc2)C(=O)NC(=O)NC1=O` [Phenobarbital] here?
**A.** Its concentration in plasma is 2210 ng/mL.

**Q.** What about the concentration in plasma (Rat [27]) of the same molecule?
**A.** Its concentration in plasma is 1540 ng/mL.

**Q.** What about the concentration in plasma (Rat [28]) of the same molecule?
**A.** Its concentration in plasma is 2870 ng/mL.

**Q.** Which concentration in plasma (Rat [29]) does the source give for `O=C(O)CSCC(=O)O` [Thiodiglycolic Acid] here?
**A.** The concentration in plasma was 535 ng/mL.

**Q.** And the concentration in heart (Rat [30])?
**A.** Its concentration in heart is 527 ng/g.

**Q.** And the concentration in heart (Rat [31])?
**A.** Its concentration in heart is 376 ng/g.

**Q.** And the concentration in thymus (Rat [32])?
**A.** Its concentration in thymus is 3430 ng/g.

**Q.** And the concentration in heart (Rat [33])?
**A.** Its concentration in heart is 1520 ng/g.

**Q.** What about the concentration in liver (Rat [34]) of the same molecule?
**A.** The concentration in liver was 155000 ng/g.

**Q.** And the concentration in heart (Rat [35])?
**A.** The concentration in heart was 2840 ng/g.

**Q.** What about the concentration in heart (Rat [36]) of the same molecule?
**A.** The concentration in heart was 1930 ng/g.

**Q.** `O=C(O)C(Cl)Cl` [dichloroacetic acid] was tested. Which concentration in plasma (Rat [37]) did it give?
**A.** Its concentration in plasma is 10700 ng/mL.

**Q.** And the concentration in plasma (Rat [38]; 1 h)?
**A.** The concentration in plasma was 16800 ng/mL.

**Q.** What about the concentration in plasma (Rat [38]; 2 h) of the same molecule?
**A.** Its concentration in plasma is 1340 ng/mL.
